Each block holds one compound with its values, some of them ahead of it.
Tests used:
[1] = molecular target: T1, LXRα (Homo sapiens, UniProt Q13133); assay: LanthaScreen TR-FRET coactivator recruitment, purified LBD (EC80 measured in this assay); type: binding
T1 construct: gene NR1H3
T1 sequence (Q13133 209-447 limits assumed): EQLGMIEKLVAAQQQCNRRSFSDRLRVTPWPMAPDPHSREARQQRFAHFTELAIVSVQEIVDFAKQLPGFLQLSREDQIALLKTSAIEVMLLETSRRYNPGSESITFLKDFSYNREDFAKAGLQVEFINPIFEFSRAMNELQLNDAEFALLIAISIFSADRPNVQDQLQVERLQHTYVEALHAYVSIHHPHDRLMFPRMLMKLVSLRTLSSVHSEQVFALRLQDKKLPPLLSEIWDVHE

[2] = molecular target: T1, LXRα; assay: LanthaScreen TR-FRET coactivator recruitment, agonist and antagonist modes, purified LBD; supported by GAL4-LBD reporter; type: biochemical
[3] = molecular target: T2, PPARγ (Homo sapiens, UniProt P37231); assay: GAL4-PPARγ LBD luciferase reporter in HG5LN (HeLa) cells; type: cell-based; settings: read-out: % activation at 80 μM
T2 construct: gene PPARG; GAL4(1–147)-PPARγ LBD fusion
T2 sequence (P37231 231-505 limits assumed): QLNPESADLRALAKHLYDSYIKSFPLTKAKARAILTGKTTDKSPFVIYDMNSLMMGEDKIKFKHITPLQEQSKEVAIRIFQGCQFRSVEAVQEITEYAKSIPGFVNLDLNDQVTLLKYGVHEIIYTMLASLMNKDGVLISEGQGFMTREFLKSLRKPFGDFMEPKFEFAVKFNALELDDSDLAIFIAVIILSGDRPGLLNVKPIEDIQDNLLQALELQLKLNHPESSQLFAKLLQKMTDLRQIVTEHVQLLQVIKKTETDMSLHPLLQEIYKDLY

[4] = molecular target: recombinant LXRα ligand-binding domain, GST-tagged; assay: FRET or BRET; LanthaScreen TR-FRET coactivator assay, cell-free, antagonist mode: GST-LXRα LBD, fluorescein Trap220 peptide, TO901317 at its EC80 in all wells (250 nM by methods and legend, 1 µM by the results text), increasing naringenin
[5] = molecular target: recombinant LXRα ligand-binding domain, GST-tagged; assay: FRET or BRET; LanthaScreen TR-FRET coactivator assay, cell-free, agonist mode: GST-LXRα LBD labelled by terbium anti-GST antibody, fluorescein Trap220 peptide, increasing naringenin; percent activation compared to maximal activation of positive control (TO901317)

Compound: O=S(=O)(c1ccccc1)N(CC(F)(F)F)c1ccc(C(O)(C(F)(F)F)C(F)(F)F)cc1 [TO901317]
LanthaScreen TR-FRET coactivator recruitment, purified LBD (EC80 measured in thi) [1]: 250 nM

Compound: O=C1C[C@@H](c2ccc(O)cc2)Oc2cc(O)cc(O)c21 [naringenin]
% activation [2]: 38.0±2.8 % activation | Emax at 80 µM [3]: 57 ± 0.3%

percent inhibition of binding by 133 µM naringenin in the presence of 1 µM TO901317 [4]: 11.6% | percent inhibition of the TR-FRET signal by 133 µM naringenin with 250 nM TO901317 [4]: 15% | percent activation of TR-FRET signal with naringenin, relative to TO901317 [5]: 38%
Compound: fluorescein-labeled Trap 220/Drip-2 co-activator peptide

— article PMC2928300, “Transcriptional Regulation of Human and Rat Hepatic Lipid Metabolism by the Grapefruit Flavonoid Naringenin: Role of PPARα, PPARγ and LXRα” (PLoS ONE, 2010)
